Measurements reported in US11759437B2, “Preventive and therapeutic approach for aberrant cell differentiation and ISR-associated diseases” (The University of Hong Kong, priority 2016, dated 2023).

How the values were obtained:
prion-infected mice = conditions: cited from earlier work
13del mice = format: in vivo
wild-type mice = experiment: ISRIB treatment of wild-type littermates; format: in vivo, mouse
Protocol: The potential of ISRIB to modify the chondrodysplasia phenotype was tested by treating 13del and wild-type littermates with ISRIB or vehicle twice daily by intraperitoneal injection from E13.5 (onset of expression of 13del transgene) to postnatal day 20 (p20) (FIG. 8A).
ISRIB (SML0843, Sigma) was dissolved in DMSO to make a 5 mg/ml stock and stored at 4-degree. Animals were intraperitoneally injected with ISRIB ((103, 104) (2.5 mg/kg, diluted in 0.9% saline) or vehicle (5% DMSO in saline) from E13.5 till p20 stage. The animals were collected at p10 and p20 stages for further analysis.

mice = conditions: cited from earlier work
[1] = test system: Mouse models of chondrodysplasia; conditions: cited from earlier work
[2] = test system: congenital skeletal dysplasias; conditions: cited from earlier work
Fgf21 = Fgf21 expression after ER stress inducer tunicamycin in fibroblasts and ATDC5 cells; format: cell-based, mouse; conditions: NIH3T3 and MEF cells and ATDC5 cells, tunicamycin treatment
Protocol: FGF21 is a hormone with roles in glucose and lipid metabolism (74) and plays an survival role in the response to diverse stressful conditions, such as amino acid deprivation, mitochondrial stress and ER stress associated with diseases such as diabetes, cardiovascular disease (75-77).
Quantitative PCR was performed using SYBR-Green master mixture according to the manufacturer's instruction (Takara). Appropriate amounts of cDNA (or DNA) and primers were mixed with distilled water up to 10 μl and combined with equal amount of SYBR-Green master mixture. The reaction was run on the StepOne Real Time PCR system (Applied Biosystems, A&B). The Ct (cycle threshold) is defined as the cycle number required for the fluorescent signal to cross the threshold. The relative expression levels of target genes are calculated by normalizing to the expression level of GAPDH using delta-delta-Ct (Relative expression level=2^−(Cttarget−CtGapdh)). Melting curve was also measured to detect the specificity of the primers.

[3] = 13del mice, after 20-days ISRIB treatment

## Cn1cc(-c2ccc3c(c2)CCN3C(=O)Cc2cccc(C(F)(F)F)c2)c2c(N)ncnc21 [GSK2606414]
prion-infected mice
  effect of restoring protein synthesis through PERK inhibition: neuroprotective
  side effects: weight loss and pancreatic toxicity

## O=C(COc1ccc(Cl)cc1)N[C@H]1CC[C@H](NC(=O)COc2ccc(Cl)cc2)CC1 [ISRIB]
13del mice; 13del HZ, p10
  amount of ATF4 and CHOP protein: reduced
  transcripts and protein level of downstream targets (ATF3, ERO1l and FGF21): down-regulation
13del mice; 13del lumbar IVD, after ISRIB treatment
  Atf3+ cells in L3-L6 NP, growth plates or endplates: no Atf3^+ cell can be detected
13del mice; 13del lumbar NP, 20-days treatment
  ectopic NP expression of Opn: greatly reduced
13del mice; 13del mice
  number of reprogrammed chondrocytes in the growth plates and endplates: reduced
13del mice; [3]
  chondrocyte-like cells present in iAF: fewer
  regularity of inner annulus fibrosus (iAF): more regular
13del mice; 13del mice, p10, in situ hybridization
  Bip transcripts in HZ: not affected
13del mice; 13del mice, p10 and p20
  HZ expansion in tail intervertebral disc growth plates: reduced
  HZ expansion in the limb growth plates: greatly reduced
  number of SOX9+, Col2a1+ and Ppr+ cells in the HZ: diminished
  number of Sox9+ and Col2a1+ premature cells in tail intervertebral disc growth plates: decreased
13del mice; ISRIB 2.5 mg/kg
  IVD abnormalities in 13del lumbar spine (endplate expansion, iAF structure): eased
13del mice; ISRIB 2.5 mg/kg i.p., E13.5 to p20
  overall adverse effect in treated mice: without any obvious adverse effect
13del mice; TUNEL
  apoptosis in 13del HC: did not induce apoptosis
13del mice; new born to juvenile stages, ISRIB 2.5 mg/kg i.p. twice daily, E13.5 to p20
  dwarfism of 13del mice (body length): markedly reduced
13del mice; p20, ISRIB 2.5 mg/kg i.p.
  skeletal deformities, radiographic analyses (length of tibia/femur and spine, genu varum, pelvic bone orientation, coxa vara): ameliorated
wild-type mice; histology, p10
  effect on the limb growth plates in wild-type mice: no observable effect
wild-type mice; wild-type mice, ISRIB 2.5 mg/kg i.p. twice daily, E13.5 to p20
  adverse effects on weight gain or body growth: no adverse effects
mice
  neurotrophic effects: significant neurotrophic effects
  overall toxicity: no overall toxicity
  pharmacokinetic properties: acceptable

## O=C(O)CCCc1ccccc1 [phenylbutyric acid]
[1]
  efficacy in chondrodysplasia: ineffective

## Growth hormone: Growth hormone (GH) therapy used to treat dwarfism
[2]; in vivo
  effect in cases with severe spinal deformities: worsened kyphosis and lordosis
[2]; most congenital skeletal dysplasias
  efficacy for height gain: ineffective

## tunicamycin
Fgf21
  increase of Fgf21 expression: > 100 fold
